# Measurements as given in patent US6355799B1, “Substituted benzene compounds, process for their preparation, and herbicidal and defoliant compositions containing them” (ISK Americas Incorporated, priority 1997, dated 2002).
# How the values were obtained:
# Type in all cases: in vivo
# [1] = tested on: green foxtail (Setaria viridis, SETVI); test: Post-emerge test, greenhouse herbicide activity screening; conditions: post-emerge, phytotoxicity rating 0-100 at 14 days after application
# How it was run: (§1)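 Compounds in acetone were track-sprayed at 187 l/ha, 15–1000 g ai/ha, onto sandy loam pots. Pre-emerge seeds were sown one day before spraying, with surface watering afterwards. Post-emerge plants were at the 2–3 leaf stage and sprayed with 0.25% v/v non-ionic surfactant. Injury was rated 0–100 at 14 days.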
# [2] = tested on: sicklepod (Cassia obtusifolia, CASOB); test: as above; conditions: post-emerge, phytotoxicity rating 0-100 at 14 days after application
# How it was run: as §1
# [3] = tested on: large crabgrass (Digitaria sanguinalis, DIGSA); test: as above; conditions: post-emerge, phytotoxicity rating 0-100 at 14 days after application
# How it was run: as §1
# [4] = tested on: redroot pigweed (Amaranthus retroflexus, AMARE); test: as above; conditions: post-emerge, phytotoxicity rating 0-100 at 14 days after application
# How it was run: as §1
# [5] = tested on: velvetleaf (Abutilon theophrasti, ABUTH); test: as above; conditions: post-emerge, phytotoxicity rating 0-100 at 14 days after application
# How it was run: as §1
# [6] = tested on: lambsquarters (Chenopodium album, CHEAL); test: as above; conditions: post-emerge, phytotoxicity rating 0-100 at 14 days after application
# How it was run: as §1
# [7] = tested on: johnsongrass (Sorghum halepense, SORHA); test: as above; conditions: post-emerge, phytotoxicity rating 0-100 at 14 days after application
# How it was run: as §1
# [8] = tested on: ivyleaf morningglory (Ipomoea hederacea, IPOHE); test: as above; conditions: post-emerge, phytotoxicity rating 0-100 at 14 days after application
# How it was run: as §1
# [9] = tested on: barnyardgrass (Echinochloa crus-galli, ECHCG); test: as above; conditions: post-emerge, phytotoxicity rating 0-100 at 14 days after application
# How it was run: as §1
# [10] = tested on: redroot pigweed (Amaranthus retroflexus, AMARE); test: Pre-emerge test, greenhouse herbicide activity screening; conditions: pre-emerge, phytotoxicity rating 0-100 at 14 days after application
# How it was run: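 Sandy loam pots; pre-emerge: sown 1 d pre-spray, surface-watered after, then bottom-watered. Post-emerge: sown 8–21 d before, 2–3 leaf stage, + 0.25% v/v NIS, bottom-watered. Acetone, 187 l/ha track spray, 15–1000 g ai/ha. 0–100 injury score, day 14.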
# [11] = tested on: field corn (Zea mays L., var. Dekalb 535, CORN); test: Post-emerge test, crop safety; conditions: post-emerge, crop damage rating 0-100 at 14 days after application
# How it was run: as §1
# [12] = tested on: upland rice (Oryza sp., var. Tebonnet, RICE); test: Post-emerge test, crop safety; conditions: post-emerge, crop damage rating 0-100 at 14 days after application
# How it was run: as §1
# [13] = tested on: green foxtail (Setaria viridis, SETVI); test: Pre-emerge test, greenhouse herbicide activity screening; conditions: pre-emerge, phytotoxicity rating 0-100 at 14 days after application
# How it was run: as §1
# [14] = tested on: sicklepod (Cassia obtusifolia, CASOB); test: as above; conditions: pre-emerge, phytotoxicity rating 0-100 at 14 days after application
# How it was run: as §1
# [15] = tested on: large crabgrass (Digitaria sanguinalis, DIGSA); test: as above; conditions: pre-emerge, phytotoxicity rating 0-100 at 14 days after application
# How it was run: as §1
# [16] = tested on: velvetleaf (Abutilon theophrasti, ABUTH); test: as above; conditions: pre-emerge, phytotoxicity rating 0-100 at 14 days after application
# How it was run: as §1
# [17] = tested on: lambsquarters (Chenopodium album, CHEAL); test: as above; conditions: pre-emerge, phytotoxicity rating 0-100 at 14 days after application
# How it was run: as §1
# [18] = tested on: johnsongrass (Sorghum halepense, SORHA); test: as above; conditions: pre-emerge, phytotoxicity rating 0-100 at 14 days after application
# How it was run: as §1
# [19] = tested on: ivyleaf morningglory (Ipomoea hederacea, IPOHE); test: as above; conditions: pre-emerge, phytotoxicity rating 0-100 at 14 days after application
# How it was run: as §1
# [20] = tested on: barnyardgrass (Echinochloa crus-galli, ECHCG); test: as above; conditions: pre-emerge, phytotoxicity rating 0-100 at 14 days after application
# How it was run: as §1
# [21] = tested on: field corn (Zea mays L., var. Dekalb 535, CORN); test: Pre-emerge test, crop safety; conditions: crop damage, pre-emerge, phytotoxicity rating 0-100 at 14 days after application
# How it was run: (§2)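 Plants grown in 10 cm pots of sandy loam mix received acetone-dissolved compounds through a moving flat-fan nozzle. Doses ranged from 15 to 1000 g ai/ha. Pre-emerge pots were seeded one day earlier, post-emerge pots 8–21 days earlier. Fourteen days on, each pot was graded 0–100 for damage.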
# [22] = tested on: upland rice (Oryza sp., var. Tebonnet, RICE); test: Pre-emerge test, crop safety; conditions: crop damage, pre-emerge, phytotoxicity rating 0-100 at 14 days after application
# How it was run: as §2
smiles,measurement,setting,value
C#CCOc1c(Cl)cc(F)c(N2C(=O)C3=C(CCCC3)C2=O)c1NC(=O)c1ccc(F)cc1F [8-13],Post-emerge Herbicidal Activity SETVI,[1]; 63 g ai/ha,30
same,Post-emerge Herbicidal Activity SETVI,[1]; 125 g ai/ha,30
same,Post-emerge Herbicidal Activity CASOB,[2]; 63 g ai/ha,30
same,Post-emerge Herbicidal Activity CASOB,[2]; 125 g ai/ha,50
same,Post-emerge Herbicidal Activity DIGSA,[3]; 63 g ai/ha,20
same,Post-emerge Herbicidal Activity DIGSA,[3]; 125 g ai/ha,10
same,Post-emerge Herbicidal Activity AMARE,[4]; 63 g ai/ha,100
same,Post-emerge Herbicidal Activity AMARE,[4]; 125 g ai/ha,100
same,Post-emerge Herbicidal Activity ABUTH,[5]; 63 g ai/ha,100
same,Post-emerge Herbicidal Activity ABUTH,[5]; 125 g ai/ha,100
same,Post-emerge Herbicidal Activity CHEAL,[6]; 63 g ai/ha,90
same,Post-emerge Herbicidal Activity CHEAL,[6]; 125 g ai/ha,90
same,Post-emerge Herbicidal Activity SORHA,[7]; 63 g ai/ha,10
same,Post-emerge Herbicidal Activity SORHA,[7]; 125 g ai/ha,20
same,Post-emerge Herbicidal Activity IPOHE,[8]; 63 g ai/ha,50
same,Post-emerge Herbicidal Activity IPOHE,[8]; 125 g ai/ha,60
same,Post-emerge Herbicidal Activity ECHCG,[9]; 63 g ai/ha,20
same,Post-emerge Herbicidal Activity ECHCG,[9]; 125 g ai/ha,40
same,Pre-emerge Herbicidal Activity AMARE,[10]; rate 63 g ai/ha,50
same,Pre-emerge Herbicidal Activity AMARE,[10]; rate 125 g ai/ha,70
same,Post-emerge Herbicidal Activity CORN,[11]; 63 g ai/ha,10
same,Post-emerge Herbicidal Activity CORN,[11]; 125 g ai/ha,40
same,Post-emerge Herbicidal Activity RICE,[12]; 63 g ai/ha,30
same,Post-emerge Herbicidal Activity RICE,[12]; 125 g ai/ha,70
same,Pre-emerge Herbicidal Activity SETVI,[13]; rate 63 g ai/ha,20
same,Pre-emerge Herbicidal Activity SETVI,[13]; rate 125 g ai/ha,40
same,Pre-emerge Herbicidal Activity CASOB,[14]; rate 63 g ai/ha,0
same,Pre-emerge Herbicidal Activity CASOB,[14]; rate 125 g ai/ha,0
same,Pre-emerge Herbicidal Activity DIGSA,[15]; rate 63 g ai/ha,0
same,Pre-emerge Herbicidal Activity DIGSA,[15]; rate 125 g ai/ha,40
same,Pre-emerge Herbicidal Activity ABUTH,[16]; rate 63 g ai/ha,90
same,Pre-emerge Herbicidal Activity ABUTH,[16]; rate 125 g ai/ha,100
same,Pre-emerge Herbicidal Activity CHEAL,[17]; rate 63 g ai/ha,100
same,Pre-emerge Herbicidal Activity CHEAL,[17]; rate 125 g ai/ha,70
same,Pre-emerge Herbicidal Activity SORHA,[18]; rate 63 g ai/ha,0
same,Pre-emerge Herbicidal Activity SORHA,[18]; rate 125 g ai/ha,30
same,Pre-emerge Herbicidal Activity IPOHE,[19]; rate 63 g ai/ha,0
same,Pre-emerge Herbicidal Activity IPOHE,[19]; rate 125 g ai/ha,0
same,Pre-emerge Herbicidal Activity ECHCG,[20]; rate 63 g ai/ha,0
same,Pre-emerge Herbicidal Activity ECHCG,[20]; rate 125 g ai/ha,30
same,Pre-emerge Herbicidal Activity CORN,[21]; rate 63 g ai/ha,0
same,Pre-emerge Herbicidal Activity CORN,[21]; rate 125 g ai/ha,0
same,Pre-emerge Herbicidal Activity RICE,[22]; rate 63 g ai/ha,10
same,Pre-emerge Herbicidal Activity RICE,[22]; rate 125 g ai/ha,10
